Assays:
[1] = test system: CCL2; assay: Mouse CCL2 assay in MLE12 cells; type: cell-based; details: Mus musculus, MLE12, 30 h, MLE12 cells; TNF-α 20 ng/ml; supernatant after 30 hours; HTRF; read-out: CCL2 (EC50)
Text: Cisbio mouse CCL2 assay is intended for the quantitative measurement of CCL2 in supernatant using HTRF® technology. The assay is compatible with mouse samples, and is highly specific for CCL2. CCL2 is detected in a sandwich assay format using 2 different specific antibodies, one labeled with Cryptate (donor) and the second with d2 (acceptor). The detection principle is based on HTRF® technology. When the labelled antibodies bind to the same antigen, the excitation of the donor with a light source (laser or flash lamp) triggers a Fluorescence Resonance Energy Transfer (FRET) towards the acceptor, which in turn fluoresces at a specific wavelength (665 nm). The two antibodies bind to the CCL2 present in the sample, thereby generating FRET. Signal intensity is proportional to the number of antigen-antibody complexes formed and therefore to the CCL2 concentration. • Materials: • Cells: MLE12 (Mouse Lung Epithelial cells, SV40 transformed) • Medium: DMEM/F12 (Gibco #11330057), FBS 5% (Gibco #10500064), Pen/Strep 50 U/50 μg/ml (Gibco #15070063) • Cell plates: 384-well, black/clear, TC-treated (Corning #3764) • Source plate: Labcyte LDV 384 (Labcyte #LP-0200) • Compound dilution plate: V-bottom 384-well PP plate (Greiner #781280) • Compounds: 10 mM stocks in DMSO • HTRF plates: 384-well, white, half area, non-binding (Costar #3824) • Mouse CCL2 kit: Cisbio 62MCCL2PEH • Other reagents: Trypsin/EDTA 10× (Gibco #15400054), PBS (Gibco #14190169), Resazurin (Sigma-Aldrich #199303), 1 mg/ml in PBS, TNF-α 200 μg/ml in PBS (Peprotech #300-01A) • Instruments: • Echo liquid handler (Labcyte) • Multidrop Combi (Thermo Scientific) • Sense plate reader (Hidex) Compound Handling:
(§1) Stock solutions (10 mM in DMSO) of compounds were dispensed in V-bottom 384-well plates and the following dilutions were prepared: 10 mM and 0.05 mM. The dilutions were transferred to the source plate. Duplicate 6 points dose-response curves of compounds were nano-dispensed in cell plates (CCL2 assay) and in parallel, 11 points DR curves in duplicates were nano-dispensed for the viability assay. The plates were heat sealed and kept at RT until use.
(§2) MLE12 cells in flasks were washed once with PBS, detached with Trypsin/EDTA, resuspended in fresh medium and counted. Cells were diluted to 3×10^5 cells/ml and seeded with Multidrop Combi in cell plates pre-dispensed with compounds, 25 μl/well (7500 cells/well). The plates were placed, one by one, in a CO2-incubator at 37° C. for 1 hour after which 25 μl/well of TNF-α (final concentration 20 ng/ml) were added. The plates were transferred back to the CO2-incubator placed in a plastic box with wet tissue in the bottom, to avoid evaporation, for 30 hours.
After 30 hours incubation, the plates were spun down 5 minutes at 400 g, and 16 μl/well of the supernatants were transferred to the assay plate. A mCCL2 standard curve was prepared according to the kit protocol and 16 μl/well of the standards were also added to the assay plate.
The anti-CCL2 antibody mix was prepared according to the kit protocol, and 4 μl/well were added to the assay plate. The plate was sealed and incubated over night at RT. After incubation the plate was read in Sense plate reader with Time-resolved FRET protocol (Ex330 nm/Em 620 and 665 nm). After data reduction, the delta ratios were imported to an excel template where the IC50 values were calculated.

[2] = test system: MLE12 cells; assay: Cell viability assay in MLE12 cells (resazurin); type: cell-based, mouse; details: Mus musculus, MLE12, 24 h, TNF-α 20 ng/ml, resazurin added after 24 hours culture
Description: as §1, §2
After 24 hours culture, resazurin reagent (stock 1 mg/ml in PBS) diluted 1:17 in PBS was added with Multidrop Combi, 10 μl/well, and plates were incubated for 6 hours. Plates were read in Sense plate reader with resorufin protocol (ex544 nm/em595 nm). The results were imported to an excel template where the EC50 values were calculated using XLfit.

[3] = biological target: OGG1 (Homo sapiens (Human), UniProt O15527); assay: In vitro OGG1 activity assay; type: biochemical; details: 800 pM OGG1 enzyme, 2 nM human APEX1, 10 nM 8-oxoA:C substrate
Sequence of OGG1 (O15527 whole entry): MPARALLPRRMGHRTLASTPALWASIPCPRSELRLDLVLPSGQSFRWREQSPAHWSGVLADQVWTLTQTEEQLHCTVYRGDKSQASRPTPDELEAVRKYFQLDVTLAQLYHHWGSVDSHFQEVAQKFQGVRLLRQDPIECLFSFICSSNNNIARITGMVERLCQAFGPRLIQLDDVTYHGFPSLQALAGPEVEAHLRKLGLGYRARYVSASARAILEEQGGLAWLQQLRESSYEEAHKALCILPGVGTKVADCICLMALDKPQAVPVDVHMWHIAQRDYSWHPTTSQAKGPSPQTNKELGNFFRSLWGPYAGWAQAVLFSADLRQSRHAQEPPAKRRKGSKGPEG
In short: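 Read-out is fluorescein fluorescence, with compounds in DMSO added first, then enzyme and substrate. OGG1 excises its substrate base from a quenched fluorophore-labelled duplex, and surplus APEX1 cuts the resulting apurinic site. The duplex then melts and fluorescence rises in proportion to glycosylase activity.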

SMILES | EC50 [1] | IC50 [2] | IC50 [3]
O=c1[nH]c2c(Br)cccc2n1[C@H]1CC[C@@H](C(=O)Nc2ccccc2)CC1 [Example 127, (Cis)-4-(4-bromo-2-oxo-2,3-dihydro-1H-1,3-benzodiazol-1-yl)-N-phenylcyclohexane-1-carboxamide] | 28.7 µM | 16.2 µM | 1.22 µM
COc1ccc(NC(=O)[C@H]2CC[C@@H](n3c(=O)[nH]c4c(Br)cccc43)CC2)cc1C(F)(F)F [Example 129, (Cis)-4-(4-bromo-2-oxo-2,3-dihydro-1H-1,3-benzodiazol-1-yl)-N-[4-methoxy-3-(trifluoromethyl)phenyl]cyclohexane-1-carboxamide] | 21.6 µM | 9.48 µM | 0.116 µM
O=c1[nH]c2c(Br)cccc2n1[C@H]1CC[C@@H](C(=O)Nc2ccc(Cl)cc2Cl)CC1 [Example 131, (Cis)-4-(4-bromo-2-oxo-2,3-dihydro-1H-1,3-benzodiazol-1-yl)-N-(2,4-dichlorophenyl)cyclohexane-1-carboxamide] | 39.2 µM | 17.4 µM | 0.676 µM
O=c1[nH]c2c(Br)cccc2n1[C@H]1CC[C@@H](C(=O)Nc2ccc3cc[nH]c3c2)CC1 [Example 135, (Cis)-4-(4-bromo-2-oxo-2,3-dihydro-1H-1,3-benzodiazol-1-yl)-N-(1H-indol-6-yl)cyclohexane-1-carboxamide] | 23.3 µM | 9 µM | 0.094 µM
O=c1[nH]c2c(Br)cccc2n1[C@H]1CC[C@@H](C(=O)Nc2ccc(F)cc2)CC1 [Example 136, (Cis)-4-(4-bromo-2-oxo-2,3-dihydro-1H-1,3-benzodiazol-1-yl)-N-(4-fluorophenyl)cyclohexane-1-carboxamide] | 23.8 µM | 8.86 µM | 0.501 µM
Cc1ccc(NC(=O)[C@H]2CC[C@@H](n3c(=O)[nH]c4c(Br)cccc43)CC2)cc1 [Example 139, (Cis)-4-(4-bromo-2-oxo-2,3-dihydro-1H-1,3-benzodiazol-1-yl)-N-(4-methylphenyl)cyclohexane-1-carboxamide] | 31.8 µM | 10.1 µM | 0.058 µM
COc1ccc(NC(=O)[C@H]2CC[C@@H](n3c(=O)[nH]c4c(Br)cccc43)CC2)cc1 [Example 140, (Cis)-4-(4-bromo-2-oxo-2,3-dihydro-1H-1,3-benzodiazol-1-yl)-N-(4-methoxyphenyl)cyclohexane-1-carboxamide] | 34.6 µM | 17.7 µM | 0.025 µM
Cc1cc(NC(=O)[C@H]2CC[C@@H](n3c(=O)[nH]c4c(Br)cccc43)CC2)ccc1F [Example 142, (Cis)-4-(4-bromo-2-oxo-2,3-dihydro-1H-1,3-benzodiazol-1-yl)-N-(4-fluoro-3-methylphenyl)cyclohexane-1-carboxamide] | 15.8 µM | 7.96 µM | 0.497 µM
COc1cc(NC(=O)[C@H]2CC[C@@H](n3c(=O)[nH]c4c(Cl)cccc43)CC2)ccc1C [Example 146, (Cis)-4-(4-chloro-2-oxo-2,3-dihydro-1H-1,3-benzodiazol-1-yl)-N-(3-methoxy-4-methylphenyl)cyclohexane-1-carboxamide] | 29.6 µM | 9.72 µM | 0.027 µM
COc1ccc(NC(=O)[C@H]2CC[C@@H](n3c(=O)[nH]c4c(Cl)cccc43)CC2)cc1 [Example 147, (Cis)-4-(4-chloro-2-oxo-2,3-dihydro-1H-1,3-benzodiazol-1-yl)-N-(4-methoxyphenyl)cyclohexane-1-carboxamide] | 32.1 µM | 17.9 µM | 0.036 µM
O=c1[nH]c2c(Cl)cccc2n1[C@H]1CC[C@@H](C(=O)Nc2ccc3cc[nH]c3c2)CC1 [Example 148, (Cis)-4-(4-chloro-2-oxo-2,3-dihydro-1H-1,3-benzodiazol-1-yl)-N-(1H-indol-6-yl)cyclohexane-1-carboxamide] | 31.7 µM | 15.7 µM | 0.098 µM
Cc1ccc(NC(=O)[C@H]2CC[C@@H](n3c(=O)[nH]c4c(Cl)cccc43)CC2)cc1 [Example 149, (Cis)-4-(4-chloro-2-oxo-2,3-dihydro-1H-1,3-benzodiazol-1-yl)-N-(4-methylphenyl)cyclohexane-1-carboxamide] | 33.7 µM | 16.7 µM | 0.086 µM
O=c1[nH]c2c(Cl)cccc2n1[C@H]1CC[C@@H](C(=O)Nc2ccc(Cl)cc2)CC1 [Example 150, (Cis)-4-(4-chloro-2-oxo-2,3-dihydro-1H-1,3-benzodiazol-1-yl)-N-(4-chlorophenyl)cyclohexane-1-carboxamide] | 18.7 µM | 7.58 µM | 0.106 µM
COC(=O)c1cc(NC(=O)[C@H]2CC[C@@H](n3c(=O)[nH]c4c(Br)cccc43)CC2)ccc1OC [Example 151, Methyl 2-methoxy-5-[(cis)-4-(4-bromo-2-oxo-2,3-dihydro-1H-1,3-benzodiazol-1-yl)cyclohexaneamido]benzoate] | 5.25 µM | 17.1 µM | 0.526 µM
Cc1cc(NC(=O)[C@H]2CC[C@@H](n3c(=O)[nH]c4c(Br)cccc43)CC2)ccc1Cl [Example 152, (Cis)-4-(4-bromo-2-oxo-2,3-dihydro-1H-1,3-benzodiazol-1-yl)-N-(4-chloro-3-methylphenyl)cyclohexane-1-carboxamide] | 15.4 µM | 6.18 µM | 0.074 µM
Cc1ccc(NC(=O)[C@H]2CC[C@@H](n3c(=O)[nH]c4c(Br)cccc43)CC2)c(F)c1 [Example 153, (Cis)-4-(4-bromo-2-oxo-2,3-dihydro-1H-1,3-benzodiazol-1-yl)-N-(2-fluoro-4-methylphenyl)cyclohexane-1-carboxamide] | 44 µM | 24.6 µM | 0.383 µM
COc1ccc(NC(=O)[C@H]2CC[C@@H](n3c(=O)[nH]c4c(Br)cccc43)CC2)c(F)c1F [Example 154, (Cis)-4-(4-bromo-2-oxo-2,3-dihydro-1H-1,3-benzodiazol-1-yl)-N-(2,3-difluoro-4-methoxyphenyl)cyclohexane-1-carboxamide] | 52.3 µM | 16.1 µM | 0.383 µM
COc1c(F)cc(NC(=O)[C@H]2CC[C@@H](n3c(=O)[nH]c4c(Br)cccc43)CC2)cc1F [Example 160, (Cis)-4-(4-bromo-2-oxo-2,3-dihydro-1H-1,3-benzodiazol-1-yl)-N-(3,5-difluoro-4-methoxyphenyl)cyclohexane-1-carboxamide] | 25.6 µM | 8.18 µM | 0.081 µM
COc1ccc(NC(=O)[C@H]2CC[C@@H](n3c(=O)[nH]c4c(Br)cccc43)CC2)cc1F [Example 164, (Cis)-4-(4-bromo-2-oxo-2,3-dihydro-1H-1,3-benzodiazol-1-yl)-N-(3-fluoro-4-methoxyphenyl)cyclohexane-1-carboxamide] | 33.9 µM | 12.9 µM | 0.043 µM
O=c1[nH]c2c(Br)cccc2n1[C@H]1CC[C@@H](C(=O)Nc2ccc3c(c2)OCO3)CC1 [Example 166, (Cis)-N-(2H-1,3-benzodioxol-5-yl)-4-(4-bromo-2-oxo-2,3-dihydro-1H-1,3-benzodiazol-1-yl)cyclohexane-1-carboxamide] | 42.7 µM | 16.4 µM | 0.041 µM

Reference: patent publication US11970474B2, “Substituted benzodiazoles and use thereof in therapy” (THOMAS HELLEDAYS STIFTELSE FÖR MEDICINSK FORSKNING, priority 2018, dated 2024)
